Experiments:
[1] = test system: Gtl2/Dlk1 (Gtl2 locus); assay: Methylation / activity of the Gtl2 locus in iPS cell lines derived with or without VPA; assay type: cell-based, mouse; conditions: VPA+ (n = 15 cell lines)
Text: In some embodiments, the induction conditions include contacting the cells with a histone deacetylase inhibitor or other compound that alters epigenetic marks. […] See, Stadfeld, et al., Nature. 465(7295):175-81 (2010); Liu et al., J Biol Chem. 285(25):19483-90 (2010). Normal ESCs express genes from one of the two parental chromosomes. Previous non-fully pluripotent IPSC lines have reduced expression from both parental Gtl loci by allowing extra epigenetic marking. These iPSC lines have methylated both Gtl2 loci and also may have distinct histone acetylation and methylation that turns off gene expression which correlates with or causes failure to generate live animals. The methods described herein produce a high frequency of cell lines that generate mice and these lines have an active and properly imprinted (i.e., hemi-methylated and histone acetylated) Gtl2 locus. When the epigenetic remodeling compound, VPA is removed from the method but no other variables are changed, the Gtl2 locus is no longer active or properly imprinted in the majority of cell lines. Therefore inclusion of VPA, or other histone deacetylase inhibitors or epigenetic remodeling compounds, regulates imprinting of the Gtl2 locus and other genomic regions that control pluripotency.

[2] = test system: mouse embryonic fibroblasts (MEFs); assay: Dox-inducible lentiviral reprogramming of fibroblasts to iPSC colonies; assay type: cell-based
Text: We reasoned that inappropriate expression of reprogramming genes during development could inhibit embryonic and postnatal development. Therefore, we designed a drug-inducible lentiviral reprogramming strategy to achieve tight control of transgene expression in iPSCs and their derivatives (FIG. 1b)^19. The four original reprogramming factors (Oct4, Sox2, Klf4 and cMyc) were placed under control of the tetO promoter, which is activated by the reverse tetracycline transactivator (rtTA) protein in the presence of the tetracycline analog doxycycline (dox). We used an enhanced version of the rtTA transcriptional activator protein (rtTAM2.2) that induces higher gene expression levels than the rtTAM2 protein^20. To promote complete reprogramming and facilitate isolation of fully reprogrammed iPSCs we exposed MEFs to the histone deacetylase inhibitor valproic acid (VPA), which has been reported to enhance reprogramming efficiency^21 and to select against incompletely reprogrammed cells by inhibiting cell division^22 (Supplementary methods).
Generation of iPSCs. Mouse embryonic fibroblasts (MEFs) were prepared from Pcdh21/Cre-Z/EG (iMZ lines) or Nex/Cre-Z/EG (iNZ lines) E13.5 embryos. Generation of iMZ lines: After 24 hours in culture, individual wells of ˜300,000 MEFs were transduced with lentiviruses (day 1) and split 1:2 (day 2) and 1:3 (day 3) to generate 6 wells of transduced MEFs. On post-transduction day 4, dox (10 μg/ml) was added to four wells to induce expression of reprogramming genes; three of these wells were also treated with VPA (1.9 mM). The remaining two wells were treated with nothing, or VPA alone. To maintain conditions for optimal MEF growth and viability, on post-transduction day five, the three dox+VPA wells were expanded into a 15 cm^2 dish while the other three conditions were expanded to 10 cm^2 dishes. […] On day 14, additional colonies were isolated, of which 12 were expanded (lines iMZ-9-21) and characterized further. […] On post-transduction day 17, all putative iPSC lines were transferred to fresh feeders in single 96 well plates. Cell lines were expanded into two wells on post-transduction day 21. Cells were maintained in dox+VPA until post-transduction day 23, when both were removed. All cell lines appeared to maintain ESC like morphology and proliferation rates. Lines were expanded to 24 well plates on day 24. Subsequently, cell lines were banked and maintained as described in the cell culture conditions section. Generation of iNZ lines: Initial reprogramming conditions were identical to those of iMZ lines except that cells were split 1:2 on post-transduction day 3 to generate four wells (dox+VPA, dox only, VPA only and no treatment). Cells were split once after dox and VPA addition. […]

Row | SMILES | % iPS Cell Lines with Active Gtl2 Locus: % Locus Unmethylated High (>40%) ([1]; share of lines in class High (>40%)) [%] | % iPS Cell Lines with Active Gtl2 Locus: % Locus Unmethylated Low (1-10%) ([1]; share of lines in class Low (1-10%)) [%] | % iPS Cell Lines with Active Gtl2 Locus: % Locus Unmethylated Medium (10-40%) ([1]; share of lines in class Medium (10-40%)) [%] | % iPS Cell Lines with Active Gtl2 Locus: % Locus Unmethylated Negative (not detectable) ([1]; share of lines in class Negative (not detectable)) [%] | colony emergence in the absence of dox ([2]; iMZ MEFs, VPA alone 1.9 mM, no dox) | post-transduction day on which colonies were observed ([2]; iMZ lines, Pcdh21/Cre-Z/EG MEFs, dox 10 μg/ml, VPA 1.9 mM from day 4) | post-transduction day on which colonies were observed ([2]; iNZ lines, Nex/Cre-Z/EG MEFs) | colonies observed on day 14 ([2]; iNZ lines, Nex/Cre-Z/EG MEFs, post-transduction day 14)
1 | CCCC(CCC)C(=O)O [VPA, valproic acid] | 27 | 40 | 33 | 0 | No colonies emerged |  |  | 
2 | C[C@H]1c2cccc(O)c2C(=O)C2=C(O)[C@]3(O)C(=O)C(C(N)=O)=C(O)[C@@H](N(C)C)[C@@H]3[C@@H](O)[C@@H]21 [dox, doxycycline] |  |  |  |  |  | 11 | 11 | 19

Source: patent US20120178158A1, “ADULT ANIMALS GENERATED FROM INDUCED PLURIPOTENT CELLS” (The Scripps Research Institute, priority 2009, published 2012)
